In ChEMBL document CHEMBL1121748, “Antimycotic imidazoles. 5. Synthesis and antimycotic properties of 1-[[2-aryl-4-(arylalkyl)-1,3-dioxolan-2-yl]methyl]-1H-imidazoles” (1981):

Columns and labels:
Phialophora verrucosa = experiment: Antifungal activity against Phialophora verrucosa; type: functional
Sporothrix schenckii = experiment: Antifungal activity against Sporothrix schenck ii; type: functional
Microsporum canis = experiment: Antifungal activity against Microsporum canis; type: functional
Cryptococcus neoformans = experiment: Antifungal activity against Cryptococcus neoformans; type: functional
Saprolegnia = experiment: Antifungal activity against Saprolegnia species; type: functional
[1] = test system: Erysipelothrix rhusiopathiae; experiment: Antibacterial activity against Erysipelothrix insidiosa; type: functional
Candida albicans = experiment: Antifungal activity against Candida albicans; type: functional
Aspergillus fumigatus = experiment: Antifungal activity against Aspergillus fumigatus; type: functional
Trichophyton benhamiae = experiment: Antifungal activity against Trichophyton mentagrophytes; type: functional, trychophyton mentagrophytes
Candida tropicalis = experiment: Antifungal activity against Candida tropicalis; type: functional
Streptococcus pyogenes = experiment: Antibacterial activity against Streptococcus pyogenes; type: functional
Trichophyton rubrum = experiment: Antifungal activity against Trichophyton rubrum; type: functional
[2] = test system: Staphylococcus haemolyticus; experiment: Antibacterial against Staphylococcus hemolyticus; type: functional
Mucor = experiment: Antifungal activity against Mucor species; type: functional
[3] = Ratio of animals cured to that of animals infected, tested in vivo for antifungal activity against cutaneous candidosis in guinea pig; 0/2; type: functional; also: test concentration or dose not given here
[4] = Ratio of animals cured to that of animals infected, tested in vivo for antifungal activity against vaginal candidosis in rat; 0/2; also: test concentration or dose not given here

Clc1ccc(C2(Cn3ccnc3)OCC(c3ccccc3Cl)O2)c(Cl)c1 (centres undefined)
Inhibition (Phialophora verrucosa): 100 µg/mL
Inhibition (Sporothrix schenckii): 10 µg/mL
Inhibition (Microsporum canis): 10 µg/mL
Inhibition (Cryptococcus neoformans): <1 µg/mL
Inhibition (Saprolegnia): 100 µg/mL
Inhibition [1]: <1 µg/mL
Inhibition (Candida albicans): 100 µg/mL
Inhibition (Aspergillus fumigatus): 100 µg/mL
Inhibition (Trichophyton benhamiae): <1 µg/mL
Inhibition (Candida tropicalis): 100 µg/mL
Inhibition (Streptococcus pyogenes): <1 µg/mL
Inhibition (Trichophyton rubrum): <1 µg/mL
Inhibition [2]: 1 µg/mL
Inhibition (Mucor): 100 µg/mL

Cc1ccc(C2(Cn3ccnc3)OCC(c3ccc(Cl)cc3)O2)cc1 (centres undefined)
Ratio [3]: 0
Inhibition (Phialophora verrucosa): 100 µg/mL
Inhibition (Sporothrix schenckii): 10 µg/mL
Inhibition (Microsporum canis): <1 µg/mL
Inhibition (Cryptococcus neoformans): <1 µg/mL
Inhibition (Saprolegnia): 100 µg/mL
Inhibition [1]: <1 µg/mL
Inhibition (Candida albicans): >100 µg/mL
Inhibition (Aspergillus fumigatus): <1 µg/mL
Inhibition (Trichophyton benhamiae): <1 µg/mL
Inhibition (Candida tropicalis): 100 µg/mL
Inhibition (Streptococcus pyogenes): <1 µg/mL
Inhibition (Trichophyton rubrum): <1 µg/mL
Inhibition [2]: 10 µg/mL
Inhibition (Mucor): 10 µg/mL

Cc1ccc(C2(Cn3ccnc3)OCC(c3ccc(Cl)cc3Cl)O2)cc1 (centres undefined)
Ratio [3]: 0
Inhibition (Phialophora verrucosa): 100 µg/mL
Inhibition (Sporothrix schenckii): 10 µg/mL
Inhibition (Microsporum canis): 10 µg/mL
Inhibition (Cryptococcus neoformans): 10 µg/mL
Inhibition (Saprolegnia): 100 µg/mL
Inhibition [1]: <1 µg/mL
Inhibition (Candida albicans): >100 µg/mL
Inhibition (Aspergillus fumigatus): 100 µg/mL
Inhibition (Trichophyton benhamiae): <1 µg/mL
Inhibition (Candida tropicalis): >100 µg/mL
Inhibition (Streptococcus pyogenes): <1 µg/mL
Inhibition (Trichophyton rubrum): <1 µg/mL
Inhibition [2]: 1 µg/mL
Inhibition (Mucor): 100 µg/mL

Clc1cccc(C2(Cn3ccnc3)OCC(c3ccc(Cl)cc3Cl)O2)c1 (centres undefined)
Ratio [3]: 0
Inhibition (Phialophora verrucosa): >100 µg/mL
Inhibition (Sporothrix schenckii): 10 µg/mL
Inhibition (Microsporum canis): 100 µg/mL
Inhibition (Cryptococcus neoformans): 100 µg/mL
Inhibition (Saprolegnia): 100 µg/mL
Inhibition [1]: 10 µg/mL
Inhibition (Candida albicans): 100 µg/mL
Inhibition (Aspergillus fumigatus): 100 µg/mL
Inhibition (Trichophyton benhamiae): 10 µg/mL
Inhibition (Candida tropicalis): 100 µg/mL
Inhibition (Streptococcus pyogenes): <1 µg/mL
Inhibition (Trichophyton rubrum): <1 µg/mL
Ratio [4]: 0
Inhibition [2]: 100 µg/mL
Inhibition (Mucor): 100 µg/mL

Clc1ccc(C2COC(Cn3ccnc3)(c3ccc(Br)cc3)O2)cc1 (centres undefined)
Ratio [3]: 0
Inhibition (Phialophora verrucosa): 100 µg/mL
Inhibition (Sporothrix schenckii): 10 µg/mL
Inhibition (Microsporum canis): <1 µg/mL
Inhibition (Cryptococcus neoformans): 100 µg/mL
Inhibition (Saprolegnia): 100 µg/mL
Inhibition [1]: 1 µg/mL
Inhibition (Candida albicans): >100 µg/mL
Inhibition (Aspergillus fumigatus): 10 µg/mL
Inhibition (Trichophyton benhamiae): <1 µg/mL
Inhibition (Candida tropicalis): 100 µg/mL
Inhibition (Streptococcus pyogenes): 1 µg/mL
Inhibition (Trichophyton rubrum): <1 µg/mL
Ratio [4]: 0
Inhibition [2]: 100 µg/mL
Inhibition (Mucor): >100 µg/mL

Clc1ccc(C2COC(Cn3ccnc3)(c3ccccc3Cl)O2)c(Cl)c1 (centres undefined)
Inhibition (Phialophora verrucosa): 100 µg/mL
Inhibition (Sporothrix schenckii): <1 µg/mL
Inhibition (Microsporum canis): <1 µg/mL
Inhibition (Cryptococcus neoformans): <1 µg/mL
Inhibition (Saprolegnia): 10 µg/mL
Inhibition [1]: 1 µg/mL
Inhibition (Candida albicans): >100 µg/mL
Inhibition (Aspergillus fumigatus): <1 µg/mL
Inhibition (Trichophyton benhamiae): <1 µg/mL
Inhibition (Candida tropicalis): >100 µg/mL
Inhibition (Streptococcus pyogenes): <1 µg/mL
Inhibition (Trichophyton rubrum): <1 µg/mL
Ratio [4]: 0
Inhibition [2]: 10 µg/mL
Inhibition (Mucor): >100 µg/mL

Clc1ccc(C2COC(Cn3ccnc3)(c3ccccc3Cl)O2)cc1 (centres undefined)
Inhibition (Phialophora verrucosa): 100 µg/mL
Inhibition (Sporothrix schenckii): 10 µg/mL
Inhibition (Microsporum canis): <1 µg/mL
Inhibition (Cryptococcus neoformans): 100 µg/mL
Inhibition (Saprolegnia): 10 µg/mL
Inhibition [1]: <1 µg/mL
Inhibition (Candida albicans): 100 µg/mL
Inhibition (Aspergillus fumigatus): <1 µg/mL
Inhibition (Trichophyton benhamiae): <1 µg/mL
Inhibition (Candida tropicalis): 100 µg/mL
Inhibition (Streptococcus pyogenes): <1 µg/mL
Inhibition (Trichophyton rubrum): <1 µg/mL
Inhibition [2]: 100 µg/mL
Inhibition (Mucor): 100 µg/mL

COc1ccc(C2(Cn3ccnc3)OCC(c3ccc(Cl)cc3)O2)cc1 (centres undefined)
Ratio [3]: 0
Inhibition (Phialophora verrucosa): 100 µg/mL
Inhibition (Sporothrix schenckii): 10 µg/mL
Inhibition (Microsporum canis): <1 µg/mL
Inhibition (Cryptococcus neoformans): >100 µg/mL
Inhibition (Saprolegnia): 100 µg/mL
Inhibition [1]: 10 µg/mL
Inhibition (Candida albicans): >100 µg/mL
Inhibition (Aspergillus fumigatus): <1 µg/mL
Inhibition (Trichophyton benhamiae): <1 µg/mL
Inhibition (Candida tropicalis): >100 µg/mL
Inhibition (Streptococcus pyogenes): 10 µg/mL
Inhibition (Trichophyton rubrum): 10 µg/mL
Inhibition [2]: 100 µg/mL
Inhibition (Mucor): 100 µg/mL

Clc1ccc(C2(Cn3ccnc3)OCC(c3ccccc3)O2)cc1 (centres undefined)
Inhibition (Phialophora verrucosa): 100 µg/mL
Inhibition (Sporothrix schenckii): 10 µg/mL
Inhibition (Microsporum canis): 10 µg/mL
Inhibition (Cryptococcus neoformans): 10 µg/mL
Inhibition (Saprolegnia): 100 µg/mL
Inhibition [1]: 1 µg/mL
Inhibition (Candida albicans): 100 µg/mL
Inhibition (Aspergillus fumigatus): 10 µg/mL
Inhibition (Trichophyton benhamiae): <1 µg/mL
Inhibition (Candida tropicalis): >100 µg/mL
Inhibition (Streptococcus pyogenes): <1 µg/mL
Inhibition (Trichophyton rubrum): <1 µg/mL
Inhibition [2]: 10 µg/mL
Inhibition (Mucor): 100 µg/mL

Cc1ccc(C2(Cn3ccnc3)OCC(c3ccc(Br)cc3)O2)cc1 (centres undefined)
Ratio [3]: 0
Inhibition (Phialophora verrucosa): >100 µg/mL
Inhibition (Sporothrix schenckii): >100 µg/mL
Inhibition (Microsporum canis): <1 µg/mL
Inhibition (Cryptococcus neoformans): >100 µg/mL
Inhibition (Saprolegnia): 10 µg/mL
Inhibition [1]: <1 µg/mL
Inhibition (Candida albicans): >100 µg/mL
Inhibition (Aspergillus fumigatus): <1 µg/mL
Inhibition (Trichophyton benhamiae): <1 µg/mL
Inhibition (Candida tropicalis): >100 µg/mL
Inhibition (Streptococcus pyogenes): <1 µg/mL
Inhibition (Trichophyton rubrum): <1 µg/mL
Ratio [4]: 0
Inhibition [2]: 10 µg/mL
Inhibition (Mucor): >100 µg/mL

Clc1ccccc1C1(Cn2ccnc2)OCC(c2ccc(Br)cc2)O1 (centres undefined)
Inhibition (Phialophora verrucosa): 10 µg/mL
Inhibition (Sporothrix schenckii): 10 µg/mL
Inhibition (Microsporum canis): <1 µg/mL
Inhibition (Cryptococcus neoformans): <1 µg/mL
Inhibition (Saprolegnia): 10 µg/mL
Inhibition [1]: 10 µg/mL
Inhibition (Candida albicans): 100 µg/mL
Inhibition (Aspergillus fumigatus): <1 µg/mL
Inhibition (Trichophyton benhamiae): <1 µg/mL
Inhibition (Candida tropicalis): 10 µg/mL
Inhibition (Streptococcus pyogenes): 10 µg/mL
Inhibition (Trichophyton rubrum): <1 µg/mL
Inhibition [2]: 10 µg/mL
Inhibition (Mucor): 10 µg/mL

Brc1ccc(C2COC(Cn3ccnc3)(c3ccccc3)O2)cc1 (centres undefined)
Inhibition (Phialophora verrucosa): 100 µg/mL
Inhibition (Sporothrix schenckii): 10 µg/mL
Inhibition (Microsporum canis): <1 µg/mL
Inhibition (Cryptococcus neoformans): 10 µg/mL
Inhibition (Saprolegnia): 100 µg/mL
Inhibition [1]: 1 µg/mL
Inhibition (Candida albicans): 100 µg/mL
Inhibition (Aspergillus fumigatus): 10 µg/mL
Inhibition (Trichophyton benhamiae): <1 µg/mL
Inhibition (Candida tropicalis): >100 µg/mL
Inhibition (Streptococcus pyogenes): <1 µg/mL
Inhibition (Trichophyton rubrum): <1 µg/mL
Inhibition [2]: >100 µg/mL
Inhibition (Mucor): 100 µg/mL

Brc1ccc(C2(Cn3ccnc3)OCC(c3ccccc3)O2)cc1 (centres undefined)
Ratio [3]: 0
Inhibition (Phialophora verrucosa): 100 µg/mL
Inhibition (Sporothrix schenckii): 100 µg/mL
Inhibition (Microsporum canis): <1 µg/mL
Inhibition (Cryptococcus neoformans): 10 µg/mL
Inhibition (Saprolegnia): 100 µg/mL
Inhibition [1]: 10 µg/mL
Inhibition (Candida albicans): 100 µg/mL
Inhibition (Aspergillus fumigatus): 100 µg/mL
Inhibition (Trichophyton benhamiae): <1 µg/mL
Inhibition (Candida tropicalis): >100 µg/mL
Inhibition (Streptococcus pyogenes): <1 µg/mL
Inhibition (Trichophyton rubrum): <1 µg/mL
Ratio [4]: 0
Inhibition [2]: 100 µg/mL
Inhibition (Mucor): 100 µg/mL

Clc1ccc(C2COC(Cn3ccnc3)(c3ccc(Br)cc3)O2)c(Cl)c1 (centres undefined)
Ratio [3]: 0
Inhibition (Phialophora verrucosa): >100 µg/mL
Inhibition (Sporothrix schenckii): 100 µg/mL
Inhibition (Microsporum canis): 10 µg/mL
Inhibition (Cryptococcus neoformans): >100 µg/mL
Inhibition (Saprolegnia): >100 µg/mL
Inhibition [1]: 1 µg/mL
Inhibition (Candida albicans): >100 µg/mL
Inhibition (Aspergillus fumigatus): >100 µg/mL
Inhibition (Trichophyton benhamiae): 10 µg/mL
Inhibition (Candida tropicalis): >100 µg/mL
Inhibition (Streptococcus pyogenes): 1 µg/mL
Inhibition (Trichophyton rubrum): <1 µg/mL
Inhibition [2]: 100 µg/mL
Inhibition (Mucor): 100 µg/mL

Clc1ccc(C2(Cn3ccnc3)OCC(c3ccc(Cl)cc3Cl)O2)cc1 (centres undefined)
Inhibition (Phialophora verrucosa): 100 µg/mL
Inhibition (Sporothrix schenckii): 10 µg/mL
Inhibition (Microsporum canis): 10 µg/mL
Inhibition (Cryptococcus neoformans): 10 µg/mL
Inhibition (Saprolegnia): 100 µg/mL
Inhibition [1]: 1 µg/mL
Inhibition (Candida albicans): 100 µg/mL
Inhibition (Aspergillus fumigatus): 100 µg/mL
Inhibition (Trichophyton benhamiae): <1 µg/mL
Inhibition (Candida tropicalis): >100 µg/mL
Inhibition (Streptococcus pyogenes): <1 µg/mL
Inhibition (Trichophyton rubrum): <1 µg/mL
Ratio [4]: 0
Inhibition [2]: 10 µg/mL
Inhibition (Mucor): 100 µg/mL

Clc1ccc(C2(Cn3ccnc3)OCC(Cc3ccc(Br)cc3)O2)c(Cl)c1 (centres undefined)
Inhibition (Phialophora verrucosa): 100 µg/mL
Inhibition (Sporothrix schenckii): 10 µg/mL
Inhibition (Microsporum canis): <1 µg/mL
Inhibition (Cryptococcus neoformans): <1 µg/mL
Inhibition (Saprolegnia): 100 µg/mL
Inhibition [1]: <1 µg/mL
Inhibition (Candida albicans): 10 µg/mL
Inhibition (Aspergillus fumigatus): 10 µg/mL
Inhibition (Trichophyton benhamiae): <1 µg/mL
Inhibition (Candida tropicalis): >100 µg/mL
Inhibition (Streptococcus pyogenes): <1 µg/mL
Inhibition (Trichophyton rubrum): <1 µg/mL
Ratio [4]: 0
Inhibition [2]: 10 µg/mL
Inhibition (Mucor): <1 µg/mL
